Measurements as given in the supplement of paper PMC10307832.

Tests used:
Assay in all cases: relative viability (nuclei count vs DMSO), 5 days (fraction); higher = more cells survive
[1] = compound: Cc1cc(Nc2cc(N3CCN(C)CC3)nc(Sc3ccc(NC(=O)C4CC4)cc3)n2)n[nH]1 [Tozasertib] + CCNC(=O)c1noc(-c2cc(C(C)C)c(O)cc2O)c1-c1ccc(CN2CCOCC2)cc1 [Luminespib] (partner 0.01 µM)
Method in brief: (§1)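 For relative viability, nuclei counts in treated wells were divided by those in vehicle wells. Lung cancer cell lines had been pin-tool dosed in 1536-well plates the day after seeding and cultured for 5 days, then fixed and stained in one step (final 0.05% Triton X-100, 1% formaldehyde, 1 ug/ml Hoechst) and imaged at 4×. Doses were one drug alone or a fixed anchor-drug dose plus five library-drug doses (not always all listed) in √10 steps, and values are duplicate-plate medians.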

[2] = compound: Cc1cc(Nc2cc(N3CCN(C)CC3)nc(Sc3ccc(NC(=O)C4CC4)cc3)n2)n[nH]1 [Tozasertib] + COc1cccc2cc(-c3nc([C@H]4CC[C@H](C(=O)O)CC4)n4ncnc(N)c34)[nH]c12 [OSI-027] (partner 0.5 µM)
Method in brief: as §1

[3] = compound: Cc1cc(Nc2cc(N3CCN(C)CC3)nc(Sc3ccc(NC(=O)C4CC4)cc3)n2)n[nH]1 [Tozasertib] + CC(=O)Nc1cccc(-n2c(=O)n(C3CC3)c(=O)c3c(Nc4ccc(I)cc4F)n(C)c(=O)c(C)c32)c1 [Trametinib] (partner 0.02 µM)
Method in brief: as §1

[4] = compound: Cc1cc(Nc2cc(N3CCN(C)CC3)nc(Sc3ccc(NC(=O)C4CC4)cc3)n2)n[nH]1 [Tozasertib] + CC(=O)c1c(C)c2cnc(Nc3ccc(N4CCNCC4)cn3)nc2n(C2CCCC2)c1=O [Palbociclib] (partner 0.5 µM)
Method in brief: as §1

Cell Line	relative viability ([1]; first compound 0.004 µM)	relative viability ([1]; first compound 0.01265 µM)	relative viability ([1]; first compound 0.04 µM)	relative viability ([1]; first compound 0.1265 µM)	relative viability ([2]; first compound 0.004 µM)	relative viability ([2]; first compound 0.01265 µM)	relative viability ([2]; first compound 0.04 µM)	relative viability ([2]; first compound 0.1265 µM)	relative viability ([3]; first compound 0.004 µM)	relative viability ([3]; first compound 0.01265 µM)	relative viability ([3]; first compound 0.04 µM)	relative viability ([3]; first compound 0.1265 µM)	relative viability ([4]; first compound 0.004 µM)	relative viability ([4]; first compound 0.01265 µM)	relative viability ([4]; first compound 0.04 µM)	relative viability ([4]; first compound 0.1265 µM)
NCI-H661	1.01	0.916	0.973	0.575	0.731	0.747	0.722	0.302	0.564	0.579	0.618	0.336	0.412	0.406	0.425	0.299
NCI-H727	0.254	0.351	0.515	0.343	0.75	0.536	0.683	0.539	0.358	0.395	0.38	0.37	0.554	0.573	0.629	0.563
NCI-H838	0.292	0.304	0.344	0.295	0.485	0.354	0.426	0.257	0.528	0.453	0.657	0.246	0.238	0.213	0.25	0.171
NCI-H1355	0.643	0.738	0.689	0.58	0.368	0.383	0.458	0.343	0.43	0.436	0.465	0.402	0.362	0.424	0.457	0.391
NCI-H1395	0.595	0.815	0.604	0.649	0.7	0.6	0.646	0.437	1.1	0.972	1.07	0.638	0.613	0.612	0.632	0.56
NCI-H1563	0.48	0.635	0.484	0.48		0.763	0.713	0.701								
